From ChEMBL document CHEMBL1201862, “PubChem BioAssay data set” (2004)
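Following 48 hours of exposure in 96-well plates, responses at five concentrations were used to interpolate endpoints linearly. GI50 = concentration required for 50% inhibition of growth.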 The source made the active and inactive calls. No stated cut-off is given here; in the data, active = GI50 up to about 1.1 µM and inactive = higher.

Key:
Assay in all cases: NCI-60 cell line screen, 48 h
NCI-H226 = tested on: NCI-H226
UACC-257 = tested on: UACC-257
CAKI-1 = tested on: CAKI-1
PC-3 = tested on: PC-3
COLO 205 = tested on: COLO 205
NCI-H23 = tested on: NCI-H23
IGROV-1 = tested on: IGROV-1
BT-549 = tested on: BT-549
Hs-578T = tested on: Hs-578T
786-0 = tested on: 786-0
A498 = tested on: A498
LOX IMVI = tested on: LOX IMVI
MCF7 = tested on: MCF7
SK-MEL-28 = tested on: SK-MEL-28
MDA-N = tested on: MDA-N
M14 = tested on: M14
DU-145 = tested on: DU-145
T47D = tested on: T47D
SK-MEL-2 = tested on: SK-MEL-2
SF-295 = tested on: SF-295
RXF 393 = tested on: RXF 393
EKVX = tested on: EKVX
OVCAR-4 = tested on: OVCAR-4
HCC 2998 = tested on: HCC 2998
MDA-MB-231 = tested on: MDA-MB-231
HCT-116 = tested on: HCT-116
SF-539 = tested on: SF-539
TK-10 = tested on: TK-10
SNB-75 = tested on: SNB-75
SK-MEL-5 = tested on: SK-MEL-5
SW-620 = tested on: SW-620
HOP-92 = tested on: HOP-92
HT-29 = tested on: HT-29
OVCAR-5 = tested on: OVCAR-5
HCT-15 = tested on: HCT-15
SF-268 = tested on: SF-268
A549 = tested on: A549
SK-OV-3 = tested on: SK-OV-3
MDA-MB-435 = tested on: MDA-MB-435
KM12 = tested on: KM12
MOLT-4 = tested on: MOLT-4
ACHN = tested on: ACHN
UO-31 = tested on: UO-31
OVCAR-3 = tested on: OVCAR-3
SN12C = tested on: SN12C
UACC-62 = tested on: UACC-62
NCI-H522 = tested on: NCI-H522
OVCAR-8 = tested on: OVCAR-8
NCI-H460 = tested on: NCI-H460
RPMI-8226 = tested on: RPMI-8226
NCI/ADR-RES = tested on: NCI/ADR-RES
Malme-3M = tested on: Malme-3M
SR = tested on: SR
U-251 = tested on: U-251
HOP-62 = tested on: HOP-62
SNB-19 = tested on: SNB-19
K562 = tested on: K562
HL-60 = tested on: HL-60
CCRF-CEM = tested on: CCRF-CEM

Measured: GI50

O=C1CCC(NC(=O)c2ccccc2)C(=O)N1 (centres undefined)
> 100 µM: HCT-15
inactive: NCI-H226 > 100 µM | UACC-257 > 100 µM | CAKI-1 > 100 µM | PC-3 > 100 µM | COLO 205 > 100 µM | NCI-H23 > 100 µM | IGROV-1 > 100 µM | BT-549 > 100 µM | Hs-578T > 100 µM | 786-0 > 100 µM | A498 > 100 µM | LOX IMVI > 100 µM | MCF7 > 100 µM | SK-MEL-28 > 100 µM | MDA-N > 100 µM | M14 > 100 µM | DU-145 > 100 µM | T47D > 100 µM | SK-MEL-2 > 100 µM | SF-295 > 100 µM | RXF 393 > 100 µM | EKVX > 100 µM | OVCAR-4 > 100 µM | HCC 2998 > 100 µM | MDA-MB-231 > 100 µM | HCT-116 > 100 µM | SF-539 > 100 µM | TK-10 > 100 µM | SNB-75 > 100 µM | SK-MEL-5 > 100 µM | SW-620 > 100 µM | HOP-92 > 100 µM | HT-29 > 100 µM | OVCAR-5 > 100 µM | SF-268 > 100 µM | A549 > 100 µM | SK-OV-3 > 100 µM | MDA-MB-435 > 100 µM | KM12 > 100 µM | MOLT-4 2.97 µM | ACHN > 100 µM | UO-31 > 100 µM | OVCAR-3 > 100 µM | SN12C > 100 µM | UACC-62 > 100 µM | NCI-H522 > 100 µM | OVCAR-8 > 100 µM | NCI-H460 > 100 µM | RPMI-8226 > 100 µM | NCI/ADR-RES > 100 µM | Malme-3M > 100 µM | SR > 100 µM | U-251 > 100 µM | HOP-62 > 100 µM | SNB-19 > 100 µM

C/C(=N\NC(=O)c1ccncc1)c1ccccc1Cl
> 100 µM: HCT-15
inactive: NCI-H226 > 100 µM | UACC-257 > 100 µM | CAKI-1 > 100 µM | PC-3 > 100 µM | COLO 205 > 100 µM | NCI-H23 > 100 µM | IGROV-1 > 100 µM | BT-549 > 100 µM | Hs-578T > 100 µM | 786-0 > 100 µM | A498 > 100 µM | LOX IMVI > 100 µM | MCF7 > 100 µM | SK-MEL-28 > 100 µM | MDA-N > 100 µM | M14 > 100 µM | DU-145 > 100 µM | T47D > 100 µM | K562 > 100 µM | SK-MEL-2 > 100 µM | SF-295 > 100 µM | RXF 393 > 100 µM | EKVX > 100 µM | OVCAR-4 > 100 µM | MDA-MB-231 > 100 µM | HCT-116 > 100 µM | SF-539 > 100 µM | HL-60 > 100 µM | TK-10 > 100 µM | SNB-75 > 100 µM | SK-MEL-5 > 100 µM | SW-620 > 100 µM | HOP-92 > 100 µM | HT-29 > 100 µM | OVCAR-5 > 100 µM | SF-268 > 100 µM | A549 > 100 µM | SK-OV-3 > 100 µM | MDA-MB-435 > 100 µM | KM12 > 100 µM | MOLT-4 > 100 µM | ACHN > 100 µM | UO-31 > 100 µM | OVCAR-3 > 100 µM | CCRF-CEM > 100 µM | SN12C > 100 µM | UACC-62 > 100 µM | NCI-H522 > 100 µM | OVCAR-8 > 100 µM | NCI-H460 > 100 µM | RPMI-8226 79.6 µM | NCI/ADR-RES > 100 µM | Malme-3M > 100 µM | SR > 100 µM | U-251 > 100 µM | HOP-62 > 100 µM | SNB-19 > 100 µM
